According to US20210369721A1, “SUBLINGUAL FORMULATION FOR HYPOTENSION AND SYNCOPE” (priority 2020, published 2021):
Where “and” joins values, the source holds several entries; their conditions need not be identical. Equal values may be shown once.

Experiments:
[1] = system: normal, healthy adults; test: Phase I CPC sublingual gel: blood pressure and heart rate; assay type: in vivo, human; settings: 15-120 minutes
Experimental: Study Methods: The design was an open label, phase I, dose escalation, pharmacokinetic study of a novel gel formulation of capsaicin, phenylephrine, and caffeine administered sublingually to normal, healthy adults.
Dosing and Administration: The product was expressed as fast as feasible from the oral syringe sublingually. The subject was asked to have the gel reside under the tongue for 1 minute before it was swallowed and the mouth was rinsed with water. Multiple rinses were allowed.
Of the three active components of the sublingual dosage, the dose of phenylephrine was the focus of dose escalation.
Study Drug Administration: The subject were asked to sit in a chair that allowed access to their mouth and subsequent blood sampling and continuous BP and HR monitoring. After 15-minute rest, vital signs were taken pre-dose, and SBP had to be ≤130 mmHg in order for dose to be given. If SBP>130 mmHg, the blood pressure was checked again in 15 minutes. If the repeat measurement had SBP≤130 mmHg, the first dose of CPC was given.
The study nurse delivered the appropriate dose to the subject using an oral syringe sublingually. The subject allowed the gel to reside under the tongue for 1 minute before the gel was swallowed and the mouth was rinsed with water that was swallowed. Multiple rinses were allowed as was water ad lib. […]

[2] = system: blood donors; settings: 125 or 250 mg; 95% CI 0.21-0.85; p=0.02; cited from earlier work
[3] = system: A2 adenosine receptor; settings: cited from earlier work
[4] = single dose of 200-250 mg, cited from earlier work
[5] = Caffeine plasma level after sublingual caffeine+capsaicin in ethanol; assay type: in vivo, human; settings: 5 cases; sublingual caffeine 200 mg + capsaicin in ethanol
[6] = system: healthy subjects and 1 patient with a history of VVS; test: Study 2: Capsaicin alone, tilt table testing; assay type: in vivo, human
Experimental: In a second study, we tested the effect of Capsaicin alone (50 μL Capsaicin 0.5%) on HR and BP in 3 healthy subjects (1 woman and 2 men mean age 35±18 years) and in 1 patient with a history of VVS during tilt table testing (Table 1).

[7] = clinical; settings: human, in vivo
Experimental: Pharmacokinetic Sampling: Blood samples were collected via the venous catheter with appropriate pre- and post-sample flushing. If the indwelling venous catheter patency was lost, the phlebotomist or nurse attempted to replace it, if possible. Separate needle sticks could be done for the blood collection.
Samples were collected in 6 mL heparinized tubes at the following time points: Pre-dose, 30 seconds, 1, 2, 5, 15, 30, 45, 60, 90, 120 min, and 3, 4, 6, 8, 12, 24* hours
The lithium heparin tube and 1 K2EDTA tube (capsaicin sample) were immediately placed on ice or refrigerated. […] All blood samples were centrifuged as soon as possible after clotting in a refrigerated centrifuge. The plasma from each tube was equally distributed between 2 polypropylene tubes, labeled and promptly stored at −80° C. until thawed for analysis.

[8] = target: VR1receptor; settings: micro molar range; cited from earlier work
[9] = system: impending syncope (VVS) patients; settings: cited from earlier work
[10] = cited from earlier work
[11] = system: impending VVS; settings: cited from earlier work
[12] = healthy subjects, individual subjects

With `Cn1c(=O)c2c(ncn2C)n(C)c1=O` [Caffeine] as the molecule, how does the “Speculated contribution of Caffeine to SBP elevation” value [1] read?
The value was 1-2 mmHg.

What about the “RR of occurrence of VVRs versus placebo” value [2] of the same molecule?
The value was 0.42.

What about the Affinity [3] of the same molecule?
Its Affinity is 9 µM.

What about the “Increase in SBP” value ([4]; within 30 minutes) of the same molecule?
The value was 3-14 mmHg.

And the “Time of maximal increase in SBP” value [4]?
The value was 60 to 120 min.

What about the “Start of increase in caffeine blood concentration” value [5] of the same molecule?
The value was 30 s.

Which Symptoms after drug ([6]; 1 patient with VVS) does the source give for `COc1cc(CNC(=O)CCCC/C=C/C(C)C)ccc1O` [Capsaicin, 8-methyl-N-vanillyl-trans 6-nonenamide] here?
The Symptoms after drug was “no”.

What about the “Time of max SBP increase” value ([6]; 1 patient with VVS) of the same molecule?
Its value is 1 min.

And the “Max SBP after drug” value ([6]; 1 patient with VVS, pending syncope YES, SBP at time 0 100)?
Its value is 120 mmHg.

And the “HR after Drug” value ([6]; 1 patient with VVS, HR at time 0 56)?
Its value is 80 bpm.

What about the “SBP after Capsaicin alone, mean” value ([6]; 3 healthy subjects, from a mean of 120±10 mmHg) of the same molecule?
The value was 155±5 mmHg.

And the “Time of max SBP increase, Mean” value ([6]; Mean of 3 healthy subjects)?
Its value is 1.3 min.

What about the “HR after Drug, Mean” value ([6]; Mean of 3 healthy subjects, HR at time 0 mean 78) of the same molecule?
The value was 96 bpm.

What about the “Max SBP after drug, Mean” value ([6]; Mean of 3 healthy subjects, SBP at time 0 mean 120) of the same molecule?
The value was 155 mmHg.

And the “Max SBP after drug” value ([6]; healthy subjects, Capsaicin alone 50 μL 0.5%, individual subjects)?
Its value is 160 mmHg and 155 mmHg and 150 mmHg.

What about the “Effect on SBP” value ([6]; healthy subjects, conclusion) of the same molecule?
The value was “able to increase SBP”.

And the “HR after Drug” value [6, 12]?
Its value is 100 bpm and 104 bpm and 85 bpm.

And the Symptoms after drug [6, 12]?
Its Symptoms after drug is “no”.

What about the “Time of max SBP increase” value [6, 12] of the same molecule?
The value was 1 min (2×) and 2 min.

What about the “Effect on loss of consciousness” value ([6]; one VVS patient, conclusion) of the same molecule?
The value was “prevent loss of consciousness”.

And the “Outcome of tilt test” value ([6]; patient with VVS)?
Its value is “experienced only presyncope”.

And the “SBP after capsaicin alone” value ([6]; patient with VVS, at onset of prodromes, from 100 mmHg)?
Its value is 120 mmHg.

What about the “Time of peak Capsaicin blood level” value [7] of the same molecule?
The value was “around 15 minutes”.

For `CNC[C@H](O)c1cccc(O)c1` [PE, phenylephrine], which “Effect on vagally-induced bradycardia” value ([9]; in vivo) is on record?
The value was “unable to counteract the vagally-induced bradycardia”.

And the “Effect on blood pressure” value ([9]; intra-atrial bolus 1 mg/1 ml at impending syncope)?
The value was “immediate marked increase in blood pressure”.

And the “Effect on VVS” value ([9]; intra-atrial bolus 1 mg/1 ml)?
The value was “interrupted VVS in most patients”.

What about the Time to effect ([9]; mostly) of the same molecule?
Its Time to effect is no more than 20 s.

What about the “Speculated contribution of PE to SBP elevation” value [1] of the same molecule?
The value was 1-2 mmHg.

What about the “Mean increase in SBP” value ([10]; PE blood concentration of 20 nM, 3 mcg/L or 3 ng/ml) of the same molecule?
The value was 3 mmHg.

What about the “Increase in systolic BP, mean” value ([10]; PE concentration of 9 mcg/L) of the same molecule?
The value was 11 mmHg.

What about the “Increase in systolic BP, range” value ([10]; PE concentration of 9 mcg/L) of the same molecule?
Its value is 6-20 mmHg.

And the “PE blood concentration in the current study” value [7]?
The value was 1 to 2 ng/mL.

What about the concentration at 15 min [7] of the same molecule?
Its concentration at 15 min is roughly 1 ng/mL.

With `CCNCC(O)c1cccc(O)c1` (centres unmarked) [etilefrine] as the molecule, how does the “Cases in which impending VVS was aborted” value ([11]; intravenous injection, 20% with placebo) read?
Its value is 87%.

And the Time to effect ([11]; mostly)?
The Time to effect was no more than 20 s.
